Values quoted from earlier work as cited in patent publication US10307441B2, “Pharmaceutical formulations of nitrite and uses thereof” (Board of Supervisors of Louisiana State University and …, priority 2009, dated 2019).

[1] = assumed mid-range PK constant for simulation

O=NO [NaNO2, Sodium nitrite]
oral bioavailability (assumed PK constant for simulation): 100%
clearance [1]: 60.375 L/h
half-life [1]: 45 min
